Patent US9302999B2, “Substituted triazoles as herbicides” (E. I. DU PONT DE NEMOURS AND COMPANY, priority 2012, dated 2016)

What was measured:
Format in all cases: in vivo
[1] = tested on: velvetleaf (Abutilon theophrasti); experiment: Test A pre-/postemergence: velvetleaf
How it was run: (§1)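 Whole-plant greenhouse assay in loam/sand. Preemergence directed soil spray plus simultaneous postemergence spray (one- to two-leaf stage, 2–10 cm). Rated visually ~10 days later, 0 = no effect, 100 = complete control.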

[2] = tested on: morningglory (Ipomoea spp.); experiment: Test A pre-/postemergence: morningglory
How it was run: as §1

[3] = tested on: ducksalad (Heteranthera limosa); experiment: Test B flooded paddy: ducksalad; conditions: Flood, applied to paddy water at 2-leaf stage, visually evaluated after 13 to 15 days
How it was run: (§2)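 Plants were grown to the 2-leaf stage, then pots were flooded to 3 cm above the soil and compounds were applied directly into the paddy water. Water depth was held for the whole test; after 13 to 15 days in a greenhouse, injury was visually rated against untreated controls (0 = no effect, 100 = complete control).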

[4] = tested on: barnyardgrass (Echinochloa crus-galli); experiment: Test B flooded paddy: barnyardgrass; conditions: Flood, applied to paddy water at 2-leaf stage, visually evaluated after 13 to 15 days
How it was run: as §2

[5] = tested on: pigweed (Amaranthus retroflexus); experiment: Test A pre-/postemergence: pigweed
How it was run: as §1

[6] = tested on: barnyardgrass (Echinochloa crus-galli); experiment: Test A pre-/postemergence: barnyardgrass
How it was run: as §1

[7] = tested on: foxtail, giant (giant foxtail, Setaria faberii); experiment: Test A pre-/postemergence: foxtail, giant
How it was run: as §1

[8] = tested on: rice (Oryza sativa); experiment: Test B flooded paddy: rice; conditions: Flood, applied to paddy water at 2-leaf stage, visually evaluated after 13 to 15 days
How it was run: as §2

[9] = tested on: wheat (Triticum aestivum); experiment: Test A pre-/postemergence: wheat
How it was run: as §1

[10] = tested on: sedge, umbrella (small-flower umbrella sedge Cyperus difformis); experiment: Test B flooded paddy: sedge, umbrella; conditions: Flood, applied to paddy water at 2-leaf stage, visually evaluated after 13 to 15 days
How it was run: as §2

[11] = tested on: crabgrass, large (large crabgrass, Digitaria sanguinalis); experiment: Test A pre-/postemergence: crabgrass, large
How it was run: as §1

[12] = tested on: corn (Zea mays); experiment: Test A pre-/postemergence: corn
How it was run: as §1

[13] = Postemergence, 31 g ai/ha, visual rating on 0 to 100 scale (0 no effect, 100 complete control), approximately ten days
[14] = Postemergence, 125 g ai/ha, 0 to 100 scale, 0 is no effect, 100 is complete control
[15] = Preemergence, 31 g ai/ha, 0 to 100 scale, 0 is no effect, 100 is complete control
[16] = Preemergence, 125 g ai/ha, 0 to 100 scale (0 no effect, 100 complete control)
[17] = Postemergence, 500 g ai/ha, visual rating on 0 to 100 scale (0 no effect, 100 complete control), approximately ten days
[18] = Preemergence, 500 g ai/ha, 0 to 100 scale, 0 is no effect, 100 is complete control
[19] = Postemergence, 500 g ai/ha, 0 to 100 scale, 0 is no effect, 100 is complete control
[20] = Preemergence, 125 g ai/ha, 0 to 100 scale where 0 is no effect and 100 is complete control
[21] = Preemergence, 500 g ai/ha, 0 to 100 scale (0 no effect, 100 complete control)

SMILES: COc1nn(-c2ccc(F)cc2)nc1Oc1ccnc(C(F)(F)F)c1 [Compound 34]
- Velvetleaf plant response rating [1, 13]: 0
- Velvetleaf plant response rating [1, 14]: 10
- Plant response rating, Velvetleaf [1, 15]: 0
- Plant response rating, Velvetleaf [1, 16]: 0
- Morningglory plant response rating [2, 13]: 20
- Morningglory plant response rating [2, 14]: 30
- Plant response rating, Morningglory [2, 15]: 0
- Plant response rating, Morningglory [2, 16]: 0
- Plant response rating, Ducksalad (0 to 100 scale, 0 is no effect, 100 is complete control) ([3]; 250 g ai/ha): 75
- Plant response rating, Barnyardgrass (0 to 100 scale, 0 is no effect, 100 is complete control) ([4]; 250 g ai/ha): 65
- Pigweed plant response rating [5, 13]: 20
- Pigweed plant response rating [5, 14]: 80
- Plant response rating, Pigweed [5, 15]: 0
- Plant response rating, Pigweed [5, 16]: 10
- Barnyardgrass plant response rating [6, 13]: 0
- Barnyardgrass plant response rating [6, 14]: 10
- Plant response rating, Barnyardgrass [6, 15]: 0
- Plant response rating, Barnyardgrass [6, 16]: 0
- Foxtail, Giant plant response rating [7, 13]: 10
- Foxtail, Giant plant response rating [7, 14]: 20
- Plant response rating, Foxtail, Giant [7, 15]: 0
- Plant response rating, Foxtail, Giant [7, 16]: 30
- Plant response rating, Rice (0 to 100 scale, 0 is no effect, 100 is complete control) ([8]; 250 g ai/ha): 35
- Wheat plant response rating [9, 13]: 0
- Wheat plant response rating [9, 14]: 0
- Plant response rating, Wheat [9, 15]: 0
- Plant response rating, Wheat [9, 16]: 0
- Plant response rating, Sedge, Umbrella (0 to 100 scale, 0 is no effect, 100 is complete control) ([10]; 250 g ai/ha): 90
- Crabgrass, Large plant response rating [11, 13]: 10
- Crabgrass, Large plant response rating [11, 14]: 20
- Plant response rating, Crabgrass, Large [11, 15]: 0
- Plant response rating, Crabgrass, Large [11, 16]: 50
- Corn plant response rating [12, 13]: 10
- Corn plant response rating [12, 14]: 10
- Plant response rating, Corn [12, 15]: 0
- Plant response rating, Corn [12, 16]: 0

SMILES: Cc1cc(Oc2nn(-c3ccc(F)cc3)nc2C)ccc1F [Compound 86]
- Velvetleaf plant response rating [1, 14]: 0
- Velvetleaf plant response rating [1, 17]: 0
- Plant response rating, Velvetleaf [1, 16]: 0
- Plant response rating, Velvetleaf [1, 18]: 0
- Morningglory plant response rating [2, 14]: 0
- Morningglory plant response rating [2, 17]: 0
- Plant response rating, Morningglory [2, 16]: 0
- Plant response rating, Morningglory [2, 18]: 0
- Plant response rating, Ducksalad (0 to 100 scale, 0 is no effect, 100 is complete control) ([3]; 250 g ai/ha): 0
- Plant response rating, Barnyardgrass (0 to 100 scale, 0 is no effect, 100 is complete control) ([4]; 250 g ai/ha): 0
- Pigweed plant response rating [5, 14]: 0
- Pigweed plant response rating [5, 17]: 0
- Plant response rating, Pigweed [5, 16]: 0
- Plant response rating, Pigweed [5, 18]: 0
- Barnyardgrass plant response rating [6, 14]: 0
- Barnyardgrass plant response rating [6, 17]: 0
- Plant response rating, Barnyardgrass [6, 16]: 0
- Plant response rating, Barnyardgrass [6, 18]: 0
- Foxtail, Giant plant response rating [7, 14]: 0
- Foxtail, Giant plant response rating [7, 17]: 0
- Plant response rating, Foxtail, Giant [7, 16]: 0
- Plant response rating, Foxtail, Giant [7, 18]: 0
- Plant response rating, Rice (0 to 100 scale, 0 is no effect, 100 is complete control) ([8]; 250 g ai/ha): 0
- Wheat plant response rating [9, 14]: 0
- Wheat plant response rating [9, 17]: 0
- Plant response rating, Wheat [9, 16]: 0
- Plant response rating, Wheat [9, 18]: 0
- Plant response rating, Sedge, Umbrella (0 to 100 scale, 0 is no effect, 100 is complete control) ([10]; 250 g ai/ha): 50
- Crabgrass, Large plant response rating [11, 14]: 0
- Crabgrass, Large plant response rating [11, 17]: 0
- Plant response rating, Crabgrass, Large [11, 16]: 0
- Plant response rating, Crabgrass, Large [11, 18]: 0
- Corn plant response rating [12, 14]: 0
- Corn plant response rating [12, 17]: 0
- Plant response rating, Corn [12, 16]: 0
- Plant response rating, Corn [12, 18]: 0

SMILES: CCc1nn(-c2ccc(F)cc2F)nc1Oc1ccnc(C(F)(F)F)c1 [Compound 178]
- Plant response rating, Velvetleaf [1, 14]: 60
- Velvetleaf plant response rating [1, 19]: 100
- Plant response rating, Velvetleaf [1, 20]: 10
- Plant response rating, Velvetleaf [1, 21]: 60
- Plant response rating, Morningglory [2, 14]: 90
- Morningglory plant response rating [2, 19]: 100
- Plant response rating, Morningglory [2, 20]: 0
- Plant response rating, Morningglory [2, 21]: 60
- Plant response rating, Ducksalad (0 to 100 scale, 0 is no effect, 100 is complete control) ([3]; 125 g ai/ha): 30
- Plant response rating, Barnyardgrass (0 to 100 scale, 0 is no effect, 100 is complete control) ([4]; 125 g ai/ha): 0
- Plant response rating, Pigweed [5, 14]: 100
- Pigweed plant response rating [5, 19]: 100
- Plant response rating, Pigweed [5, 20]: 100
- Plant response rating, Pigweed [5, 21]: 100
- Plant response rating, Barnyardgrass [6, 14]: 30
- Barnyardgrass plant response rating [6, 19]: 80
- Plant response rating, Barnyardgrass [6, 20]: 20
- Plant response rating, Barnyardgrass [6, 21]: 100
- Plant response rating, Foxtail, Giant [7, 14]: 60
- Foxtail, Giant plant response rating [7, 19]: 90
- Plant response rating, Foxtail, Giant [7, 20]: 90
- Plant response rating, Foxtail, Giant [7, 21]: 100
- Plant response rating, Rice (0 to 100 scale, 0 is no effect, 100 is complete control) ([8]; 125 g ai/ha): 20
- Plant response rating, Wheat [9, 14]: 20
- Wheat plant response rating [9, 19]: 40
- Plant response rating, Wheat [9, 20]: 0
- Plant response rating, Wheat [9, 21]: 10
- Plant response rating, Sedge, Umbrella (0 to 100 scale, 0 is no effect, 100 is complete control) ([10]; 125 g ai/ha): 60
- Plant response rating, Crabgrass, Large [11, 14]: 90
- Crabgrass, Large plant response rating [11, 19]: 90
- Plant response rating, Crabgrass, Large [11, 20]: 90
- Plant response rating, Crabgrass, Large [11, 21]: 100
- Plant response rating, Corn [12, 14]: 20
- Corn plant response rating [12, 19]: 30
- Plant response rating, Corn [12, 20]: 0
- Plant response rating, Corn [12, 21]: 10

SMILES: COc1nn(-c2ccc(F)cc2F)nc1Cc1ccnc(C(F)(F)F)c1 [Compound 165]
- Plant response rating, Velvetleaf [1, 14]: 40
- Velvetleaf plant response rating [1, 19]: 70
- Plant response rating, Velvetleaf [1, 20]: 0
- Plant response rating, Velvetleaf [1, 21]: 10
- Plant response rating, Morningglory [2, 14]: 60
- Morningglory plant response rating [2, 19]: 80
- Plant response rating, Ducksalad (0 to 100 scale, 0 is no effect, 100 is complete control) ([3]; 125 g ai/ha): 40
- Plant response rating, Barnyardgrass (0 to 100 scale, 0 is no effect, 100 is complete control) ([4]; 125 g ai/ha): 10
- Plant response rating, Pigweed [5, 14]: 100
- Pigweed plant response rating [5, 19]: 100
- Plant response rating, Pigweed [5, 20]: 100
- Plant response rating, Pigweed [5, 21]: 100
- Plant response rating, Barnyardgrass [6, 14]: 40
- Barnyardgrass plant response rating [6, 19]: 90
- Plant response rating, Barnyardgrass [6, 20]: 30
- Plant response rating, Barnyardgrass [6, 21]: 100
- Plant response rating, Foxtail, Giant [7, 14]: 60
- Foxtail, Giant plant response rating [7, 19]: 90
- Plant response rating, Foxtail, Giant [7, 20]: 90
- Plant response rating, Foxtail, Giant [7, 21]: 100
- Plant response rating, Rice (0 to 100 scale, 0 is no effect, 100 is complete control) ([8]; 125 g ai/ha): 20
- Plant response rating, Wheat [9, 14]: 20
- Wheat plant response rating [9, 19]: 30
- Plant response rating, Wheat [9, 20]: 0
- Plant response rating, Wheat [9, 21]: 0
- Plant response rating, Sedge, Umbrella (0 to 100 scale, 0 is no effect, 100 is complete control) ([10]; 125 g ai/ha): 70
- Plant response rating, Crabgrass, Large [11, 14]: 70
- Crabgrass, Large plant response rating [11, 19]: 90
- Plant response rating, Crabgrass, Large [11, 20]: 100
- Plant response rating, Crabgrass, Large [11, 21]: 100
- Plant response rating, Corn [12, 14]: 20
- Corn plant response rating [12, 19]: 30
- Plant response rating, Corn [12, 20]: 0
- Plant response rating, Corn [12, 21]: 10
